Laboratory results: patent US5792457A, “Antibody recognizing endothelial cell ligand for leukocyte CR3” (priority 1995, dated 1998)

Assays:
CSF leukocytosis = test: Rat meningitis model (LOS): CSF leukocytosis; format: in vivo, female Wistar rats; settings: 600 nmol i.v., 4 hours after LOS
Description: The experiments were performed according to established protocols (Wispelway et al., 1988, J. Clin. Invest., 82: 1339-1346). Purified Haemophilus influenzae type b strain DL42 lipooligosaccharide (LOS) was prepared for inoculation by sonication for 30 minutes, dilution to the desired concentration (20 ng/50 μl) in normal saline or PBS, and sonication for an additional 15 to 30 minutes just prior to use.
Briefly, anesthetized female Wistar rats were placed under a micromanipulator and inoculated intracisternally with a 25 gauge needle. After removal of 50 μl of CSF (without visible blood contamination), rats were inoculated intracisternally with 50 μl (20 ng) of LOS using a 1 ml syringe with a 25 gauge needle. Ten to fifteen minutes after inoculation with LOS, the rats were treated by intravenous administration of the test substance: a solution of an FHA peptide in PBS, a solution of a control peptide in PBS, or an equal volume of PBS alone.
Three hours after LOS inoculation, 5 μCi of ^125 I-radiolabelled albumin in 50 μl normal saline was administered intravenously. One hour later, CSF was collected via intracisternal puncture and blood samples were collected via intracardiac puncture. CSF leukocytosis was determined by manually counting white blood cells using a hemacytometer, and blood-brain barrier permeability was determined as the percent of radioactivity in whole blood that was present in the CSF. Blood samples were obtained immediately prior to inoculation, immediately prior to treatment, and at 4 hours post-inoculation for determination of peripheral white blood cell concentrations.

Factor X binding to CR3 = settings: cited from earlier work
cerebral infarct = test: Rat transient middle cerebral artery occlusion (MCAO): infarct volume; format: in vivo, male Wistar rats; settings: 50 nmol i.v. at reperfusion then 150 nmol i.p.; 2 hour MCAo, 2 day survival
[1] = system: leukocyte migration into the CSF; test: Anti-inflammatory activity in rabbits with meningitis (FIG. 5, FIG. 6); format: in vivo, rabbit; settings: intravenous
Text: This inhibitory activity implies that antibodies to FHA which bind to any of the three Factor X regions would disturb leukocyte recruitment. This is to be distinguished from anti-FHA antibodies that bind to endothelia by recognizing an integrin receptor which is an endothelial cell component (see below). […] This is shown in FIG. 6 where various doses of antibody were given to rabbits and the number of leukocytes recruited into the cerebrospinal fluid in response to pneumonoccal meningitis was determined.

[2] = system: recognition of C3bi by antibody 12.1F9; test: Inhibition of binding of 12.1F9 to E^C3bi by peptides; design: species or system human; settings: peptides 50 μg/ml
Text: Values are normalized to a control value of 100; data are expressed as the mean±SD of 6 experiments with duplicate wells.

**Q.** What does the source list for Ac-ETKEVDG-NH2 [Acetyl/Amide-FHA II]?
**A.** Leukocytosis (CSF) (CSF leukocytosis): approximately 10,000 cells/ml; Leukocytosis (CSF) (CSF leukocytosis; listed as ac/am FHA II): 10,500 ± 8523 cells/ml

**Q.** For GYDTKQEDG [Factor X II], which “inhibition of binding of CR3 bearing cells to Factor X (in words)” value (Factor X binding to CR3) is on record?
**A.** competitively inhibit the binding of CR3 bearing tissue culture cells to purified Factor X

**Q.** For RGDPHQGVLAQGDIIMDAKG [FHA Ca], which “volume of the infarct” value (cerebral infarct) is on record?
**A.** approximately 25 % of the hemisphere

**Q.** For “native FHA: Filamentous hemagglutinin, 220kD surface associated protein of Bordetella pertussis (List Biologicals)”, which “antiinflammatory activity in meningitis (in words)” value [1] is on record?
**A.** antiinflammatory activity in the sense of inhibiting leukocyte migration into the CSF

**Q.** What about the “block of binding of 12.1F9 to E^C3bi (in words)” value [2] of the same substance?
**A.** blocked binding almost completely

**Q.** And the Adherence index ([2]; normalized to control value of 100, 6 experiments)?
**A.** 16 ± 16
